The subject of one test is control plasma. The experiment in a line: prothrombin time (PT) in control plasma. To be noted: compared with PPACK. On the procedure:
Then 200 μl of prewarmed (at 37° C. for ˜10 minutes) thromboplastin with calcium (from Sigma) was rapidly added into the plasma sample.

The next test deals with T1, bovine thrombin (Bos taurus, UniProt P00735).
T1 construct: bovine thrombin (from Sigma); purchased Sigma
The experiment in a line: thrombin assay, hydrolysis of structure (11b) as proteolytic substrate. Type of test: biochemical. To be noted: for kcat/KM (thrombin): bovine thrombin, 37° C. On the procedure:
(§1) Both the thrombin and Factor VII assays of this experiment were carried out at 37° C. using a Hitachi UV/Vis spectrophotometer (model U-3000). Structure (11b) was dissolved in deionized water. The concentration was determined from the absorbance at 342 nm. […] Initial velocities were calculated from the initial linear portion of the reaction progress curve. Kinetic parameters were determined by unweighted nonlinear least-squares fitting of the simple Michaelis-Menten equation to the experimental data using GraFit (Version 3.0, Erithacus Software Limited).
For the thrombin assay, experiments were performed in pH 8.4 Tris buffer (Tris, 0.05M; NaCl, 0.15M). 6.4 NIH units of bovine thrombin (from Sigma) were dissolved into 10 ml of the assay buffer to yield 10 nM thrombin solution. […] The first two minutes of the reactions were recorded for initial velocity determination.

For test [1], the target named is T2, human Factor VIIa (FVIIa) and human tissue factor (TF) (Homo sapiens, UniProt P08709).
T2 construct: human Factor VIIa (FVIIa)
Nature of the test: Factor VII assay, hydrolysis of structure (11b) as proteolytic substrate. Type of test: biochemical. The settings on record: for kcat/KM (Factor VII): human FVIIa and TF, pH 8.0 Tris buffer, 37° C. On the procedure:
as §1
For the Factor VII assay, pH 8.0 Tris buffer (0.05 M Tris, 5 mM CaCl2, 0.15 M NaCl, 0.1% TWEEN 20, 0.1% BSA) was used. 10 μl of 20 μM human Factor VIIa (FVIIa) and 22 μM of human tissue factor (TF) was brought to assay buffer to make 160 nM FVIIa and TF solutions, respectively. […] The initial 3 minutes reaction progress curves were recorded. […] The kcat/KM was, calculated from the slope and found to be 17,500 M^−1 s^−1.

A further test concerns aPTT and TT. Nature of the test: pharmacodynamic study in rats (aPTT and TT of plasma samples). Type of test: in vivo, rat. The settings on record: male Sprague Dawley rats, 4 mg/kg IV and 10 mg/kg PO. As to the method:
Specifically, a pharmacodynamic and pharmacokinetic study of structure (20b) was conducted in male Sprague Dawley rats. […] Groups of rats (n=3 or 4) were sacrificed and exsanguinated at 0.25, 0.5, 1, 2, 4 and 8 hours following dosing. Efficacy parameters, aPTT and TT; were measured for each plasma sample.

Experimental findings from patent US6699869B1, “β-sheet mimetics and use thereof as inhibitors of biologically active peptides or proteins” (Myriad Genetics Inc., priority 1995, dated 2004) are described below.

Each structure is given as a SMILES string.

T2 sequence (P08709 213-466 limits assumed): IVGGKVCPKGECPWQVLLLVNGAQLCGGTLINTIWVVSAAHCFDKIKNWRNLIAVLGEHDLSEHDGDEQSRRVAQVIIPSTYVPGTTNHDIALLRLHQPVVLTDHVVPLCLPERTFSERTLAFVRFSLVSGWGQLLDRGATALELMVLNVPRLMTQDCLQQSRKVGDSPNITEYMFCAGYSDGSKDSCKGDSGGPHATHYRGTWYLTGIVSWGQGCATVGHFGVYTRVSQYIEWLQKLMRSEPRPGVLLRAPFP
T2 sequence (P08709 61-212 partner limits assumed): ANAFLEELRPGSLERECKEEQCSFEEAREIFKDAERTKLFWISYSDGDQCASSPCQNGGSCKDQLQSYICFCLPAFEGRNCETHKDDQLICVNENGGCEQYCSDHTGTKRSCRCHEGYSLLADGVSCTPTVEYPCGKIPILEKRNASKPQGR
T2 sequence (P13726 33-251 partner limits assumed): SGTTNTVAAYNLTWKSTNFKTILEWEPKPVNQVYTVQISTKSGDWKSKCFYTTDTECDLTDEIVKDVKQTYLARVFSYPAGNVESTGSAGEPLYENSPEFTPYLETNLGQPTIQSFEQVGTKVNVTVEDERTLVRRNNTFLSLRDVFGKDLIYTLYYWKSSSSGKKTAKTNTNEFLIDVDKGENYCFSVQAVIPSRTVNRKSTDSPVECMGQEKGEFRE

As for `N=C(N)NCCC[C@H](NC(=O)[C@@H]1CCN2CC[C@@](N)(Cc3ccccc3)C(=O)N12)C(=O)CCl` [Structure (13b)], the “time required to form clot (PT), in words” value in the test on control plasma is recorded as “comparable with PPACK”.
With `NC(N)=NCCCC(NC(=O)C1CCCN1C(=O)C(N)Cc1ccccc1)C(=O)Nc1ccc([N+](=O)[O-])cc1` (centres unmarked) [(D)FPR-PNA, reference compound], on bovine thrombin, the “kcat/KM (thrombin)” value turned out to be 2.2e+07 M⁻¹ s⁻¹. Moreover, in test [1], the “kcat/KM (Factor VII)” value turned out to be 12700 M⁻¹ s⁻¹.
`N=C(N)NCCC[C@H](NC(=O)[C@@H]1CCN2CC[C@@](N)(Cc3ccccc3)C(=O)N12)C(=O)Nc1ccc([N+](=O)[O-])cc1` [Structure (11b)]: the “kcat/KM (thrombin)” value at bovine thrombin is 1.67e+07 M⁻¹ s⁻¹. In addition, the “Activity compared to the control (D)FPR-PNA, thrombin” value on bovine thrombin (ratio of kcat/KM to control) stood at 0.76. In test [1], the “kcat/KM (Factor VII)” value is recorded as 17,500 M^−1 s^−1. In addition, the “Activity compared to the control (D)FPR-PNA, Factor VII” value in test [1] (ratio of kcat/KM to control) is given as 1.38.
For `N=C(N)NCCC[C@H](NC(=O)[C@@H]1CCN2CC[C@@](N)(Cc3ccccc3)C(=O)N12)C(=O)c1nc2ccccc2s1` [Structure (20b)], the “in vivo efficacy (aPTT and TT)” value in the test on aPTT and TT is “in vivo efficacy”.
